Reference: ChEMBL document CHEMBL1201862, “PubChem BioAssay data set” (2004)
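Method: 48-hour compound exposure of cells in 96-well plates, five concentrations, linear interpolation of endpoints. GI50 = concentration required for 50% inhibition of growth.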 Active and inactive are the calls of the source. Cut-off read from the data, not from the text of the source: active = GI50 up to about 1.1 µM and inactive = higher.

Assays:
Experiment in all cases: DTP human tumour cell line panel, 48 h
SK-MEL-2 = tested on: SK-MEL-2
DU-145 = tested on: DU-145
SNB-19 = tested on: SNB-19
EKVX = tested on: EKVX
CAKI-1 = tested on: CAKI-1
SN12C = tested on: SN12C
SF-295 = tested on: SF-295
SF-539 = tested on: SF-539
UACC-62 = tested on: UACC-62
MCF7 = tested on: MCF7
SK-OV-3 = tested on: SK-OV-3
NCI-H226 = tested on: NCI-H226
IGROV-1 = tested on: IGROV-1
U-251 = tested on: U-251
NCI-H460 = tested on: NCI-H460
K562 = tested on: K562
HOP-62 = tested on: HOP-62
A498 = tested on: A498
LOX IMVI = tested on: LOX IMVI
Hs-578T = tested on: Hs-578T

Measured: GI50

O=C1c2ccccc2-c2nc3ccc(O)cc3n21
inactive: SK-MEL-2 > 100 µM | DU-145 > 100 µM | SNB-19 > 100 µM | EKVX > 100 µM | CAKI-1 > 100 µM | SN12C > 100 µM | SF-295 > 100 µM | SF-539 > 100 µM | UACC-62 > 100 µM | MCF7 > 100 µM | SK-OV-3 > 100 µM | NCI-H226 > 100 µM | IGROV-1 > 100 µM | U-251 > 100 µM | NCI-H460 > 100 µM | K562 > 100 µM | HOP-62 > 100 µM

OC(Cc1ccccc1)(Cc1ccccc1)c1ccccc1
inactive: SK-MEL-2 15.3 µM | DU-145 17.7 µM | SNB-19 26.1 µM | EKVX 12.3 µM | CAKI-1 23.2 µM | SN12C 17 µM | SF-295 19.3 µM | UACC-62 16.9 µM | NCI-H226 18.4 µM | IGROV-1 16.3 µM | U-251 18.1 µM | A498 19.9 µM | NCI-H460 19.4 µM | K562 26.8 µM | HOP-62 19.7 µM | LOX IMVI 18.3 µM

CCC/C=C/c1cc2c(cc1O)CC[C@@H]1[C@@H]2CC[C@]2(C)[C@@H](O)CC[C@@H]12
inactive: SK-MEL-2 16.6 µM | SNB-19 23.6 µM | EKVX 19.2 µM | CAKI-1 21.2 µM | SF-295 17.6 µM | UACC-62 14.5 µM | MCF7 25.5 µM | SK-OV-3 26.8 µM | NCI-H226 24.7 µM | IGROV-1 21.1 µM | U-251 16.9 µM | A498 17.2 µM | NCI-H460 17.4 µM | K562 16.8 µM | Hs-578T 21.7 µM | LOX IMVI 14.8 µM

c1ccc2c(c1)/C(=N\NC1=NCCN1)c1nc3ccccc3nc1-2
inactive: DU-145 10.6 µM | SNB-19 6.44 µM | EKVX 12.9 µM | SN12C 8.51 µM | SF-295 2.45 µM | SF-539 5.31 µM | UACC-62 2.49 µM | MCF7 3.32 µM | SK-OV-3 1.54 µM | NCI-H226 3.63 µM | IGROV-1 6.12 µM | U-251 6.87 µM | NCI-H460 2.44 µM | K562 4.52 µM | Hs-578T 16.6 µM | HOP-62 3.72 µM

COC(=O)C1=C(CCC[C@H](C)O[Si](C)(C)C(C)(C)C)NC(=O)N2[C@@H](CCO)CC[C@H]12
inactive: DU-145 19.1 µM | SNB-19 15.2 µM | EKVX 12.4 µM | CAKI-1 17.2 µM | SN12C 15 µM | SF-295 11.7 µM | SF-539 16.7 µM | SK-OV-3 15.8 µM | NCI-H226 14.6 µM | IGROV-1 15.8 µM | U-251 15.5 µM | A498 16.6 µM | NCI-H460 20.3 µM | K562 6.92 µM | HOP-62 14.1 µM | LOX IMVI 16.9 µM

CN(C)C(=O)OC(Cn1cncn1)c1ccc(Cl)cc1Cl (stereo not drawn)
inactive: SK-MEL-2 > 100 µM | SNB-19 > 100 µM | EKVX > 100 µM | CAKI-1 > 100 µM | SN12C > 100 µM | SF-295 > 100 µM | SF-539 > 100 µM | UACC-62 > 100 µM | SK-OV-3 > 100 µM | NCI-H226 > 100 µM | IGROV-1 > 100 µM | U-251 > 100 µM | A498 > 100 µM | NCI-H460 > 100 µM | K562 > 100 µM | HOP-62 > 100 µM | LOX IMVI > 100 µM

CC1(c2nc3cc(Cl)c(Cl)cc3[nH]2)CCC(CO)C(C)(C)O1 (stereo not drawn)
inactive: SK-MEL-2 30.3 µM | DU-145 38 µM | SNB-19 54.1 µM | EKVX 23 µM | CAKI-1 29.3 µM | SN12C 32 µM | SF-295 31 µM | SF-539 25.4 µM | UACC-62 17.6 µM | MCF7 35.9 µM | SK-OV-3 94.2 µM | NCI-H226 12.4 µM | IGROV-1 20.9 µM | U-251 38.6 µM | K562 36.7 µM | Hs-578T 14.8 µM | HOP-62 33.3 µM | LOX IMVI 27.7 µM

CC1(C)CC(=O)C(=CNC(=O)c2ccncc2)C(=O)C1
inactive: SK-MEL-2 > 100 µM | DU-145 > 100 µM | SNB-19 > 100 µM | EKVX > 100 µM | CAKI-1 > 100 µM | SN12C > 100 µM | SF-295 > 100 µM | SF-539 > 100 µM | UACC-62 > 100 µM | MCF7 > 100 µM | SK-OV-3 > 100 µM | NCI-H226 > 100 µM | IGROV-1 > 100 µM | U-251 > 100 µM | NCI-H460 > 100 µM | Hs-578T > 100 µM | HOP-62 > 100 µM | LOX IMVI > 100 µM

C[n+]1cn(-c2nc3ccccc3nc2[N-]S(=O)(=O)c2ccccc2)c2ccccc21
inactive: SK-MEL-2 > 100 µM | SNB-19 > 100 µM | EKVX > 100 µM | CAKI-1 > 100 µM | SN12C > 100 µM | SF-295 > 100 µM | SF-539 > 100 µM | UACC-62 > 100 µM | MCF7 > 100 µM | SK-OV-3 > 100 µM | NCI-H226 > 100 µM | IGROV-1 > 100 µM | U-251 > 100 µM | NCI-H460 > 100 µM | K562 > 100 µM | Hs-578T > 100 µM | HOP-62 > 100 µM | LOX IMVI > 100 µM

CCOC(=O)N/N=C(\Cc1ccccc1)OCC
inactive: SK-MEL-2 > 100 µM | DU-145 > 100 µM | SNB-19 > 100 µM | EKVX > 100 µM | SN12C > 100 µM | SF-295 > 100 µM | SF-539 > 100 µM | UACC-62 > 100 µM | MCF7 > 100 µM | SK-OV-3 > 100 µM | IGROV-1 > 100 µM | U-251 > 100 µM | K562 > 100 µM | HOP-62 > 100 µM | LOX IMVI > 100 µM

CCOC(=O)/N=C(\N)SCc1ccccc1
inactive: SK-MEL-2 44.6 µM | SNB-19 > 100 µM | EKVX > 100 µM | CAKI-1 > 100 µM | SN12C > 100 µM | SF-295 > 100 µM | SF-539 > 100 µM | UACC-62 > 100 µM | SK-OV-3 > 100 µM | NCI-H226 7.33 µM | IGROV-1 > 100 µM | U-251 > 100 µM | A498 > 100 µM | NCI-H460 > 100 µM | K562 > 100 µM | HOP-62 > 100 µM | LOX IMVI 43.9 µM

CC(=O)N1C(OC(C)C)CC(C)N1c1ccccc1 (stereo not drawn)
inactive: SK-MEL-2 > 10 µM | DU-145 > 10 µM | SNB-19 > 10 µM | EKVX > 10 µM | CAKI-1 > 10 µM | SN12C > 10 µM | SF-295 > 10 µM | SF-539 > 10 µM | MCF7 > 10 µM | NCI-H226 > 10 µM | IGROV-1 > 10 µM | NCI-H460 > 10 µM | K562 > 10 µM | Hs-578T > 10 µM | HOP-62 > 10 µM | LOX IMVI > 10 µM

O=C1C(Cl)C(c2ccc(O)cc2)N1n1cnc2ccccc2c1=O (stereo not drawn)
inactive: SK-MEL-2 26.9 µM | SNB-19 > 100 µM | EKVX 29.7 µM | CAKI-1 31.5 µM | SN12C 35.2 µM | SF-295 98.4 µM | SF-539 31.9 µM | UACC-62 18.7 µM | SK-OV-3 > 100 µM | NCI-H226 > 100 µM | IGROV-1 > 57.5 µM | U-251 45.4 µM | A498 > 100 µM | NCI-H460 33.1 µM | K562 31.3 µM | HOP-62 > 100 µM | LOX IMVI 21 µM

NC(=O)N1N=C2c3ccccc3CC[C@@H]2C1c1ccccc1 (stereo partly drawn)
inactive: SK-MEL-2 > 100 µM | SNB-19 > 100 µM | EKVX > 100 µM | CAKI-1 > 100 µM | SN12C > 100 µM | SF-295 > 100 µM | SF-539 > 100 µM | UACC-62 > 100 µM | SK-OV-3 > 100 µM | NCI-H226 > 100 µM | IGROV-1 > 100 µM | U-251 > 100 µM | A498 > 100 µM | NCI-H460 > 100 µM | K562 61.4 µM | HOP-62 > 100 µM | LOX IMVI > 100 µM

CC1=CC(=O)C(=C(C)C)CC1
inactive: DU-145 > 100 µM | SNB-19 > 100 µM | EKVX > 100 µM | CAKI-1 > 100 µM | SN12C > 100 µM | SF-295 > 100 µM | UACC-62 > 100 µM | MCF7 > 100 µM | SK-OV-3 > 100 µM | NCI-H226 > 100 µM | IGROV-1 > 100 µM | U-251 > 100 µM | NCI-H460 > 100 µM | K562 > 100 µM | Hs-578T > 100 µM | HOP-62 > 100 µM | LOX IMVI > 100 µM

O=C1O/C(=C\C=C\CO)C=C1/C=C/CO [LISSOCLINOLIDE]
inactive: SK-MEL-2 19.3 µM | DU-145 21 µM | SNB-19 23.5 µM | EKVX 15.3 µM | CAKI-1 14.5 µM | SN12C 27.9 µM | SF-295 39 µM | SF-539 24.1 µM | UACC-62 18.9 µM | MCF7 36.3 µM | SK-OV-3 61.2 µM | NCI-H226 36.5 µM | IGROV-1 16 µM | U-251 40.8 µM | NCI-H460 32.1 µM | K562 31.2 µM | LOX IMVI 35.6 µM
